Assays:
Enterovirus 6 = assay: In vitro CPE assay in mammalian cell culture, EV6; assay type: cell-based; details: viral cytopathic effect in mammalian cell culture, read-out: EV6 inhibition capacity (IC50)
Enterovirus 30 = assay: In vitro CPE assay in mammalian cell culture, EV30; assay type: cell-based; details: viral cytopathic effect in mammalian cell culture, read-out: EV30 inhibition capacity (IC50)
Enterovirus 68 = assay: In vitro CPE assay in mammalian cell culture, EV68; assay type: cell-based; details: Enterovirus D, viral cytopathic effect in mammalian cell culture, read-out: EV68 inhibition capacity (IC50)
Enterovirus 71 = assay: In vitro CPE assay in mammalian cell culture, EV71; assay type: cell-based; details: Enterovirus A, viral cytopathic effect in mammalian cell culture, read-out: EV71 inhibition capacity (IC50)
coxsackie B1 virus = assay: In vitro CPE assay in mammalian cell culture, B1; assay type: cell-based; details: viral cytopathic effect in mammalian cell culture, read-out: B1 inhibition capacity (IC50)
coxsackie B2 virus = assay: In vitro CPE assay in mammalian cell culture, B2; assay type: cell-based; details: viral cytopathic effect in mammalian cell culture, read-out: B2 inhibition capacity (IC50)
coxsackie B3 virus = assay: In vitro CPE assay in mammalian cell culture, B3; assay type: cell-based; details: Enterovirus B, viral cytopathic effect in mammalian cell culture, read-out: B3 inhibition capacity (IC50)
coxsackie B4 virus = assay: In vitro CPE assay in mammalian cell culture, B4; assay type: cell-based; details: Enterovirus B, viral cytopathic effect in mammalian cell culture, read-out: B4 inhibition capacity (IC50)
coxsackie B5 virus = assay: In vitro CPE assay in mammalian cell culture, B5; assay type: cell-based; details: viral cytopathic effect in mammalian cell culture, read-out: B5 inhibition capacity (IC50)
polio virus Sabin 1 = assay: organism not typed; assay type: cell-based; details: read-out: Polio 1 inhibition capacity (IC50)
PI4KIIIα = PI4KIIIα (Homo sapiens, UniProt P42356); assay: Phosphatidyl inositol kinase inhibition assay (ADP-Glo Kinase Assay); assay type: biochemical; details: * no inhibition at the highest tested concentration 1 μM
Description: (§1) Phosphatidyl inositol kinase inhibition assay Inhibition of PI4 kinases was studied using the ADP-Glo™ Kinase Assay which is a luminescent kinase assay that measures ADP formed from a kinase reaction, wherein ADP is converted into ATP, which is converted into light by Ultra-Glo™ Luciferase. The assay is performed in two steps; first, after the kinase reaction, an equal volume of ADP-Glo™ Reagent is added to terminate the kinase reaction and deplete the remaining ATP. In the second step, the Kinase Detection Reagent is added, which simultaneously converts ADP to ATP and allows the newly synthesized ATP to be measured using a coupled luciferase/luciferin reaction. The luminescent signal produced is proportional to the activity of the kinase. Inhibition of PI3 kinases was studied using the HTRF (homogeneous time-resolved fluorescence) assay, which is a universal method for identifying and characterizing the phosphotransferase activity induced by any ATP/ADP dependent target. The formation of ADP was detected by a specific monoclonal antibody labeled with Eu^3+ cryptate, and directly correlated with the amount of phosphorylated substrate.

PI4KIIIβ = PI4KIIIβ (Homo sapiens, UniProt Q9UBF8); assay: as above; assay type: biochemical
Description: as §1

PI3Kα = PI3Kα (Homo sapiens, UniProt P42336); assay: PI3 kinase inhibition HTRF assay; assay type: biochemical; details: * no inhibition at the highest tested concentration 1 μM
Description: as §1

PI3Kβ = PI3Kβ (Homo sapiens, UniProt P42338); assay: PI3 kinase inhibition HTRF assay; assay type: biochemical; details: * no inhibition at the highest tested concentration 1 μM
Description: as §1

in vivo = assay: in vivo; set-up: species or system Sprague Dawley rats; details: male, Sprague Dawley, rat, po, 50 mg/kg
Description: Overnight fasted animals were administered with the test compounds in recommended vehicle 0.4% (v/v) Tween 80+2% (v/v) Glycerol and 15% w/v HPBCD by oral route with a dose of 50 mg/kg body weight at dose volume of 10 mL/kg bw. Under mild isoflurane anesthesia, blood samples were collected into pre-labeled tubes containing anticoagulant (K2EDTA—2 mg/mL blood) during the next 24 hours post dose. Collected blood samples were centrifuged at 4000 rpm, 4° C. for 10 minutes and plasma was separated and stored at −80° C. until analysis.

[1] = Metabolic stability in human liver microsomes; assay type: in vitro ADME; details: for Remaining after 1 h, HLM: human liver microsomes, 5 μM test item, 0.125 mg/mL microsomal protein; for half-life at 5 μM: human, microsomes
Description: (§2) Metabolic stability in human and rat liver microsomesMetabolic stability was studied using human (HLM) or rat (RLM) liver microsomes. The final composition of the assay included 5 μM of test item and reference item (Diclofenac or Imipramine) prepared from DMSO stock, so that the final concentration of DMSO was 0.1%, 0.125 mg/mL microsomal protein and cofactors (5.0 mM G-6-P, 0.06 U/mL G-6-PDH, 2.0 mM MgCl2, 1.0 mM NADP^+). Test and reference items were incubated with human or rat liver microsomes with or without cofactors. The reaction mixture (100 μL) was removed at specified time periods and the reaction was stopped by addition of stop solution. The samples were extracted in presence of internal standard and were analyzed using LC-MS/MS. The percent of the test/reference item remaining after a specified incubation period was calculated with respect to the peak area ratio at time 0 min.

[2] = Metabolic stability in rat liver microsomes; assay type: in vitro ADME; details: 5 μM test item, 0.125 mg/mL microsomal protein
Description: as §2

in vitro = in vitro ADME; details: plasma, pH 7.4
Description: Plasma protein binding study was performed by using a Rapid Equilibrium Dialysis (RED) device containing dialysis membrane with a molecular weight cut-off of 8,000 Daltons. Each dialysis insert contains two chambers. The red chamber was for the plasma while the white chamber was for the buffer. The human and rat plasma (pH adjusted to 7.40) samples of test items and reference items (Warfarin and Propranolol) were prepared at a required test concentration of 5 μM using 5 mM DMSO stocks (final DMSO concentration was 0.1%). 300 μL of plasma sample was added into the sample chamber. 500 μL of buffer was added into the buffer chamber. After sealing the RED device with an adhesive film, incubation was done at 37° C. with shaking at 300 rpm for 4 h. Following incubation, an aliquot of 50 μL was removed from each well (plasma and buffer side) and diluted with equal volume of opposite matrix to nullify the matrix effect. The specimens were subjected to sample extraction in presence of internal standard by liquid-liquid extraction/protein precipitation method. After extraction, the samples were transferred into labeled auto sampler vials and submitted to LC-MS/MS analysis.

PI4KIIIβ, sequence (Q9UBF8 whole entry): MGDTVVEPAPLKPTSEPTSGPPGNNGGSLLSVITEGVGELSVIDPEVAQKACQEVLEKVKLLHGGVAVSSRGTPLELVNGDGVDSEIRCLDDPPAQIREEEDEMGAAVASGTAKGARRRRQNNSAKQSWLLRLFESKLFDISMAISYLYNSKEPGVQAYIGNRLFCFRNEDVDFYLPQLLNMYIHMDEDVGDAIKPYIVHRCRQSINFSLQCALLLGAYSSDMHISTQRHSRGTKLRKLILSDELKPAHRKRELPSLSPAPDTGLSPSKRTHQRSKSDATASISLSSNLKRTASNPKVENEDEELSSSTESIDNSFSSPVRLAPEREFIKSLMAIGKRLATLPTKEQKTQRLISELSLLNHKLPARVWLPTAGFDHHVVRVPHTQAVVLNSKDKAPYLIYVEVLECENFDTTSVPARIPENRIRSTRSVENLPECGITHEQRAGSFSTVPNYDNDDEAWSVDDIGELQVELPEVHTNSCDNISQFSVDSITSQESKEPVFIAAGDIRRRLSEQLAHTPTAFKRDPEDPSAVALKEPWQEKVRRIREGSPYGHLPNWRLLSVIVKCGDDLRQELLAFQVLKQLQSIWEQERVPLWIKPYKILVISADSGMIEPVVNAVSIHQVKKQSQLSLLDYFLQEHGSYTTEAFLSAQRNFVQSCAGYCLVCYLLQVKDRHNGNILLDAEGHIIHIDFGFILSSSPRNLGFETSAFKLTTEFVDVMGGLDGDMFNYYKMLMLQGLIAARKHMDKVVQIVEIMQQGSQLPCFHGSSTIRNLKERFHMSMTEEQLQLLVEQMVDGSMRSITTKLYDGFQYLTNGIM
PI4KIIIα, sequence (P42356 whole entry): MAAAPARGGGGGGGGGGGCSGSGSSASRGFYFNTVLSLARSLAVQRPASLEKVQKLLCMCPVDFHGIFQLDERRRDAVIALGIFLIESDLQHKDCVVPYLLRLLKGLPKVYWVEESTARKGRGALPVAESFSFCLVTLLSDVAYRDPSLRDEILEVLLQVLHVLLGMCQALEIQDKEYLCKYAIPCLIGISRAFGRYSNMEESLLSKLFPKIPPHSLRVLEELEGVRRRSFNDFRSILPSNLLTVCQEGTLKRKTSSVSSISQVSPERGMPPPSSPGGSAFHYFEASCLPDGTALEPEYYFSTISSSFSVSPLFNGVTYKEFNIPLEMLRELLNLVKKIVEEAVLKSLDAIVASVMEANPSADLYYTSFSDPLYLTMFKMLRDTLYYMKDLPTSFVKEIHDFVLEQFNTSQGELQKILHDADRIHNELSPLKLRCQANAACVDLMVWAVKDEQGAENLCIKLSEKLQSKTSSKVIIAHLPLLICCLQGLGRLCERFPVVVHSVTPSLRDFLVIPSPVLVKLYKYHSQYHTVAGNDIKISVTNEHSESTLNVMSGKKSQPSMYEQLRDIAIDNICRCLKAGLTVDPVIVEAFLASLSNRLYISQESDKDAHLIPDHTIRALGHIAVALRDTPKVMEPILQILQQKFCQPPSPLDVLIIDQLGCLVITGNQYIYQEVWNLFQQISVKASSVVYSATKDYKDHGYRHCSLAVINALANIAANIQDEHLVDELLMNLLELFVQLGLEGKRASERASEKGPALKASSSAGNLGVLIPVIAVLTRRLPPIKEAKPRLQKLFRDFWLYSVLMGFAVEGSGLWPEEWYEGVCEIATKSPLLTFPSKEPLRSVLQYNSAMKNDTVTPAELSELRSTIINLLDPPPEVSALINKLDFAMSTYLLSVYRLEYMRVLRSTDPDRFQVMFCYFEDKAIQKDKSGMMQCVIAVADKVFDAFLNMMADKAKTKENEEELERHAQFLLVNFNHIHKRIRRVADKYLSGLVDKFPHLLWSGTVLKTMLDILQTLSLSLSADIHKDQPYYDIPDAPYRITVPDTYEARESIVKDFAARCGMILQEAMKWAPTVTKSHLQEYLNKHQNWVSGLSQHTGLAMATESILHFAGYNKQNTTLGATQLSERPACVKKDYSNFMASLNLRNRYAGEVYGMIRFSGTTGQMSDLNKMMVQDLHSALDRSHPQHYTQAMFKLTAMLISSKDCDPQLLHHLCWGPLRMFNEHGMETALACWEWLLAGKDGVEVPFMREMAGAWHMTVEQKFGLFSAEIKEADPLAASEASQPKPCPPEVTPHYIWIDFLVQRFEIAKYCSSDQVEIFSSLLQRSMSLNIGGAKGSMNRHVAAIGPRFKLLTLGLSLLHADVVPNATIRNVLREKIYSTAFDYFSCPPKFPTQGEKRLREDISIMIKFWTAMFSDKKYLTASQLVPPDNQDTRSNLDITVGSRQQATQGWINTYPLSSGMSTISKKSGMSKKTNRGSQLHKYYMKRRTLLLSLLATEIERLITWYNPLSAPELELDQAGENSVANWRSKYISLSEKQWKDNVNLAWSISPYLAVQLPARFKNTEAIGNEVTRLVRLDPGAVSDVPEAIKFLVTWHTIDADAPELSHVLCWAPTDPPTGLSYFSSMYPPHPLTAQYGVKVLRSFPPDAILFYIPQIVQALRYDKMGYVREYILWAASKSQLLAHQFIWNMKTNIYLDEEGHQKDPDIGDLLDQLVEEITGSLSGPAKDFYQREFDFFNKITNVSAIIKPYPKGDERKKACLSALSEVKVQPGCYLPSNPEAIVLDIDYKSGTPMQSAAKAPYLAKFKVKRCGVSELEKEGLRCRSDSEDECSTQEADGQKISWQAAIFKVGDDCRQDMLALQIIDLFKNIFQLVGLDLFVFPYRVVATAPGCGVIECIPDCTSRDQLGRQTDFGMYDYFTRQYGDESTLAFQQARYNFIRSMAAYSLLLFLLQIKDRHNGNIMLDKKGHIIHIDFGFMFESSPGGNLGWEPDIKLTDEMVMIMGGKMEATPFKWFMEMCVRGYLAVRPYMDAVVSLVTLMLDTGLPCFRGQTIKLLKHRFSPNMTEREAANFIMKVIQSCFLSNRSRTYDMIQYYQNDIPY
PI3Kα, sequence (P42336 whole entry, species assumed): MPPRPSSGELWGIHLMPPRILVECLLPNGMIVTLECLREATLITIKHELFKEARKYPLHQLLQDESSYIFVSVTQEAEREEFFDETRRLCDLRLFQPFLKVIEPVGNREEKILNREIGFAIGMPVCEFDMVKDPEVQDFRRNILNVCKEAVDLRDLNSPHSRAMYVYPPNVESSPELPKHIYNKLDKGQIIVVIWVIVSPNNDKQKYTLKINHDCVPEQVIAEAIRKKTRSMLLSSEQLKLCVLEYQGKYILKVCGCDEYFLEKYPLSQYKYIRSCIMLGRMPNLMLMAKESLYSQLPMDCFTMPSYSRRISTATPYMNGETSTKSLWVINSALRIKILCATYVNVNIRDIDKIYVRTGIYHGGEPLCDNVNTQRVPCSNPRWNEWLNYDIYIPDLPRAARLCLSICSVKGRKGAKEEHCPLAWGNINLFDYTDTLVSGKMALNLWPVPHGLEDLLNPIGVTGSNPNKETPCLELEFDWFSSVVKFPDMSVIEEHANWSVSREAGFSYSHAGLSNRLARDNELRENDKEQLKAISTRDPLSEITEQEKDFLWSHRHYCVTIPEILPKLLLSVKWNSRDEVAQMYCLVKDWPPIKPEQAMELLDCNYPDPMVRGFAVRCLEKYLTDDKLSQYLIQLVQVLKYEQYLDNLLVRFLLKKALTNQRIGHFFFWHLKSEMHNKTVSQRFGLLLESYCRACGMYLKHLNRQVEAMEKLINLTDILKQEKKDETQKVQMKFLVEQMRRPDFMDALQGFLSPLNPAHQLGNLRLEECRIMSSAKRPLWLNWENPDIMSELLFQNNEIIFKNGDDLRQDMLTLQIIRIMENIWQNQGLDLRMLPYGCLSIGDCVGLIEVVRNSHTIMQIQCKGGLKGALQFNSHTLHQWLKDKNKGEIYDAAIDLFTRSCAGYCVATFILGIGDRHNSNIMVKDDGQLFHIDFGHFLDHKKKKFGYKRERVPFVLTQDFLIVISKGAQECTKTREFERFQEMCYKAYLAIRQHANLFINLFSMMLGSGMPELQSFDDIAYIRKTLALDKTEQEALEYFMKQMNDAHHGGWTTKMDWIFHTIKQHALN
PI3Kα, sequence (P27986 whole entry partner, species assumed): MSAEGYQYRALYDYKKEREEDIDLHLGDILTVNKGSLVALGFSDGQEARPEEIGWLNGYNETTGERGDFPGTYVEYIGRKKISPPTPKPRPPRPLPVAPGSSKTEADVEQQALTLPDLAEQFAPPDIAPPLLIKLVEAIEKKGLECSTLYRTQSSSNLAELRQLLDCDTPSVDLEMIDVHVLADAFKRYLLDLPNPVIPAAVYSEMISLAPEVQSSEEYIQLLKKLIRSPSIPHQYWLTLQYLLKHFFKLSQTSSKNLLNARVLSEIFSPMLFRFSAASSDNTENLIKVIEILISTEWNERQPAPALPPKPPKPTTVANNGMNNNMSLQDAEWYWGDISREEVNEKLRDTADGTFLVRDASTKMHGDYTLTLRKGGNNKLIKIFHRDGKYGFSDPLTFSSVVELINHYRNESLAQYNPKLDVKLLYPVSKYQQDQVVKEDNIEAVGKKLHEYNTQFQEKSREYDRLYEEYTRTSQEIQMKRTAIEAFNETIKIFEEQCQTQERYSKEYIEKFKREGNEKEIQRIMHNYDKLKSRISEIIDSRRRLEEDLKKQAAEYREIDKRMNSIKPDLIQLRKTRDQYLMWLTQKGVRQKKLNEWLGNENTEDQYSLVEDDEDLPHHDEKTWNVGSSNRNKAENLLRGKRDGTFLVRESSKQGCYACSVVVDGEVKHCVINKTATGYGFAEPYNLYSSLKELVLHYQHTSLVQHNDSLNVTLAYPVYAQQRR

| SMILES | IC50 (Enterovirus 6) [nM] | IC50 (Enterovirus 30) [nM] | IC50 (Enterovirus 68) [nM] | IC50 (Enterovirus 71) [nM] | IC50 (coxsackie B1 virus) [nM] | IC50 (coxsackie B2 virus) [nM] | IC50 (coxsackie B3 virus) [nM] | IC50 (coxsackie B4 virus) [nM] | IC50 (coxsackie B5 virus) [nM] | IC50 (polio virus Sabin 1) [nM] | IC50 (PI4KIIIα) [nM] | IC50 (PI4KIIIβ) [nM] | IC50 (PI3Kα) [nM] | IC50 (PI3Kβ) [nM] | AUC(0-inf) (in vivo) [µg·h/mL] | AUC(0-t) (in vivo) [µg·h/mL] | AUCextrap (in vivo) [%] | Cmax (in vivo) [ng/mL] | MRT last (in vivo) [h] | Tmax (in vivo) [h] | also measured |
| --- | --- | --- | --- | --- | --- | --- | --- | --- | --- | --- | --- | --- | --- | --- | --- | --- | --- | --- | --- | --- | --- |
| Cc1cc(NCc2ccncc2)n2nc(C)c(-c3ccc4c(c3)c(C)nn4C)c2n1 [Example 8, 3-(1,3-dimethyl-1H-indazol-5-yl)-2,5-dimethyl-N-(pyridin-4-ylmethyl)pyrazolo[1,5-a]pyrimidin-7-amine] | < 100 | < 1 | < 0.1 | < 0.1 | < 0.1 | < 0.1 | < 0.1 | < 10 | < 0.1 | < 0.1 | 1300 | 0.9 | > 1000 | 1500 | 197 ± 27.1 | 185 ± 13.3 | 5.7 ± 6.1 | 12900 ± 700 | 6.8 ± 0.8 | 1.7 ± 0.6 | half-life (in vivo): 5.4 ± 2.5 h; Remaining after 1 h, HLM [1]: 86%; half-life at 5 μM [1]: > 2 h; Remaining after 1 h, RLM [2]: 90%; fraction unbound at 4 h, 5 μM (in vitro; human): 0.027; fraction unbound at 4 h, 5 μM (in vitro; rat): 0.024 |
| Cc1nc(NCc2ccncc2)n2nc(C)c(-c3ccc4c(c3)c(C)nn4C)c2n1 [Example 20, 8-(1,3-dimethyl-1H-indazol-5-yl)-2,7-dimethyl-N-(pyridin-4-ylmethyl)pyrazolo[1,5-a][1,3,5]triazin-4-amine] | < 1000 | < 10 | < 10 | < 10 | < 1 | < 1 | < 1 | < 10 | < 1 | < 1 | > 1000 | 1.2 | > 1000 | > 1000 | 115 ± 9.4 | 110 ± 8.3 | 5.1 ± 4.9 | 8000 ± 1500 | 6.8 ± 0.9 | 2 | half-life (in vivo): 5 ± 2.3 h; Remaining after 1 h, HLM [1]: 78%; half-life at 5 μM [1]: > 2 h; Remaining after 1 h, RLM [2]: 96%; fraction unbound at 4 h, 5 μM (in vitro; human): 0.906; fraction unbound at 4 h, 5 μM (in vitro; rat): 0.031 |
